In patent publication US20130022620A1, “ASSAYS AND METHODS PERTAINING TO PRE-AMYLOID INTERMEDIATES” (priority 2011, published 2013):

Key:
[1] = Thioflavin-T kinetics and TEM of amyloid formation by IAPP peptides; type: physicochemical; conditions: wild type IAPP under the conditions described
Procedure: Thioflavin-T fluorescence was used to monitor the time course of h-IAPP amyloid formation in the presence and absence of sRAGE. To identify which form(s) of h-IAPP interact with RAGE, sRAGE was added to h-IAPP at various time points during the h-IAPP amyloid formation reaction. Aliquots of the reaction mixture were analyzed by adding 100 uL aliquots of the amyloid formation reaction to 96-well plates containing 8 uL of 60 uM thioflavin-T solution at various incubation times after initiation of the amyloid formation reaction. Fluorescence was measured using a Beckman Coulter DTX880 fluorescent plate reader (excitation: 445 nm and emission: 485 nm). Final solution conditions contained 16 mM tris HCl and […] thioflavin-T (pH 7.4). […] All values represent means±SEM (n=3).
Transient kinetic species of h-IAPP were characterized by TEM. TEM images confirm the presence or absence of amyloid which were indicated by thioflavin-T fluorescence. Aliquots (4 μl) were removed from the reaction mixtures monitored by thioflavin-T assays, placed on a carbon-coated 200-mesh copper grid and negatively stained with saturated uranyl acetate. The samples were imaged with a Philips CM12 transmission electron microscope at the New York University electron microscopy core facility. Final solution conditions contained 16 mM tris HCl (pH 7.4).

[2] = test system: MCP-1 and IL-1β mRNA expression; assay: qRT-PCR of MCP-1 and IL-1β mRNA in β-cells; type: cell-based, rat; conditions: β-cells stimulated with peptide
Procedure: Assays for qRT-PCR were carried out in 6-well plates. Total cellular RNA was isolated from h-IAPP stimulated β-cells using Qiagen RNA isolation kit, and the quality of RNA samples was determined by measurement of 260:280 ratio. Only samples with a 260:280 ratio of 2.0 or higher were used for reverse transcription. RNA samples were also treated by RNAse-free DNAse to avoid genomic DNA contamination. One microgram of RNA from each sample was reverse-transcribed to cDNA using MCP-1 and IL-1β primers. Non-template negative controls were also performed to monitor non-specific reactions. RNA isolated from rat IAPP and non-h-IAPP treated beta cells were used as negative controls. Equal amounts of RNA were used in each qRT-PCR reaction, and 18S was used as the internal control for amplification at the same time. qRT-PCR reactions were carried out using an Applied Biosystems 7500 RealTime PCR machine. The relative mRNA contents were normalized using 18S and quantification was carried out using qRT-PCR Quantifier Software.

[3] = Far-UV CD of h-IAPP species; type: physicochemical; conditions: at time points of toxicity
Procedure: CD measurements of IAPP, sRAGE and IAPP/sRAGE reactions were taken at various incubation times. Far-UV CD experiments monitor the development of secondary structure of h-IAPP species and give insight into the conformational requirement for IAPP/RAGE-binding. All CD experiments were performed on an Applied Photophysics circular dichroism spectrophotometer by directly transferring 300 μL of peptide solution from kinetic assays into a 0.1 cm quartz cuvette a few minutes prior to data collection. The CD spectra for sRAGE and tris HCl buffer was subtracted from all RAGE/IAPP mixtures. The final far-UV CD data was collected over the range of 190 to 260 nm. Final solution conditions contained 16 mM tris HCl (pH 7.4).

ANS binding assay = type: physicochemical; conditions: 10 μM ANS, pH 7.4
Procedure: 8-Anilinonaphthalenesulfonic Acid (ANS) is a small hydrophobic dye which is been widely used in protein folding studies. It typically binds to partially structured states which are rich in secondary structure, compact, but which have not yet established the final tertiary structure, thus this dye can be used to detect a molten globule-like character of proteins. Fluorescence spectra of ANS-peptide complexes were measured using a Spex Fluorolog fluorimeter at 25 C (370 nm excitation and 460 nm emission). ANS-peptide complexes were monitored by adding aliquots of human IAPP to a 1 cm cuvette containing 10 μM ANS at various times along the amyloid formation reaction. Final solution conditions contained 16 mM tris HCl and 10 μM ANS (pH 7.4). […] All values represent means±SEM (n=3).

## CC[C@H](C)[C@H](NC(=O)[C@H](C)NC(=O)CNC(=O)[C@H](Cc1ccccc1)NC(=O)[C@H](CC(N)=O)NC(=O)[C@H](CC(N)=O)NC(=O)[C@H](CO)NC(=O)[C@H](CO)NC(=O)[C@H](Cc1c[nH]cn1)NC(=O)[C@@H](NC(=O)[C@H](CC(C)C)NC(=O)[C@H](Cc1ccccc1)NC(=O)[C@H](CC(N)=O)NC(=O)[C@H](C)NC(=O)[C@H](CC(C)C)NC(=O)[C@H](CCCNC(=N)N)NC(=O)[C@H](CCC(N)=O)NC(=O)[C@@H](NC(=O)[C@H](C)NC(=O)[C@@H]1CSSC[C@H](NC(=O)[C@@H](N)CCCCN)C(=O)N[C@@H](CC(N)=O)C(=O)N[C@@H]([C@@H](C)O)C(=O)N[C@@H](C)C(=O)N[C@@H]([C@@H](C)O)C(=O)N1)[C@@H](C)O)C(C)C)C(=O)N[C@@H](CC(C)C)C(=O)N[C@@H](CO)C(=O)N[C@@H](CO)C(=O)N[C@H](C(=O)N[C@@H](CC(N)=O)C(=O)N[C@H](C(=O)NCC(=O)N[C@@H](CO)C(=O)N[C@@H](CC(N)=O)C(=O)N[C@H](C(=O)N[C@@H](Cc1ccc(O)cc1)C(N)=O)[C@@H](C)O)C(C)C)[C@@H](C)O [h-IAPP, human islet amyloid polypeptide]
[1]
  time at which the amyloid formation reaction reaches saturation: about 40 hrs
[2]
  MCP-1 and IL-1β mRNA expression: increase in MCP-1 and IL-1β mRNA expression
[3]
  secondary structure (far UV CD): some partial helical structure, but no beta sheet structure
ANS binding assay
  ANS binding to final amyloid fibrils: did bind
  ANS binding to monomeric form and intermediates: No ANS binding was observed
